Measurements published in PubChem BioAssay (NCI).
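How tested: cells in 96-well plates exposed to compound for 48 hours at five concentrations. TGI: total growth inhibition.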

Key:
Experiment in all cases: NCI-60 cell line screen, 48 h
RXF-631 renal = tested on: RXF-631 renal
SNB-75 CNS = tested on: SNB-75 CNS
SK-MEL-28 melanoma = tested on: SK-MEL-28 melanoma
PC-3 prostate = tested on: PC-3 prostate
UACC-62 melanoma = tested on: UACC-62 melanoma
NCI-H226 lung = tested on: NCI-H226 lung
SF-268 CNS = tested on: SF-268 CNS
RXF 393 renal = tested on: RXF 393 renal
OVCAR-3 ovarian = tested on: OVCAR-3 ovarian
MCF7 breast = tested on: MCF7 breast
SK-MEL-2 melanoma = tested on: SK-MEL-2 melanoma
SF-539 CNS = tested on: SF-539 CNS
SR leukemia = tested on: SR leukemia
IGROV1 ovarian = tested on: IGROV1 ovarian
A549 NSCLC = tested on: A549 NSCLC
MDA-MB-435 = tested on: MDA-MB-435
DMS 273 small cell lung = tested on: DMS 273 small cell lung
COLO 205 colon = tested on: COLO 205 colon
SK-MEL-5 melanoma = tested on: SK-MEL-5 melanoma
SNB-78 CNS = tested on: SNB-78 CNS
HOP-92 NSCLC = tested on: HOP-92 NSCLC
786-0 renal = tested on: 786-0 renal
HT29 colon = tested on: HT29 colon
DU-145 prostate = tested on: DU-145 prostate
CAKI-1 renal = tested on: CAKI-1 renal
MDA-N = tested on: MDA-N
HS 578T breast = tested on: HS 578T breast
TK-10 renal = tested on: TK-10 renal
HL-60(TB) leukemia = tested on: HL-60(TB) leukemia
KM12 colon = tested on: KM12 colon
M14 melanoma = tested on: M14 melanoma
MDA-MB-231 breast = tested on: MDA-MB-231 breast
EKVX NSCLC = tested on: EKVX NSCLC
HCC-2998 colon = tested on: HCC-2998 colon
SF-295 CNS = tested on: SF-295 CNS
MOLT-4 leukemia = tested on: MOLT-4 leukemia
DLD-1 colon = tested on: DLD-1 colon
RPMI-8226 leukemia = tested on: RPMI-8226 leukemia
LOX IMVI melanoma = tested on: LOX IMVI melanoma
HOP-62 NSCLC = tested on: HOP-62 NSCLC
HCT-116 colon = tested on: HCT-116 colon
HCT-15 colon = tested on: HCT-15 colon
A498 renal = tested on: A498 renal
M19-MEL melanoma = tested on: M19-MEL melanoma
SN12C renal = tested on: SN12C renal
UO-31 renal = tested on: UO-31 renal
OVCAR-4 ovarian = tested on: OVCAR-4 ovarian
KM20L2 colon = tested on: KM20L2 colon
U251 CNS = tested on: U251 CNS
NCI-H23 lung = tested on: NCI-H23 lung
NCI-H460 lung = tested on: NCI-H460 lung
DMS 114 small cell lung = tested on: DMS 114 small cell lung
NCI-H522 lung = tested on: NCI-H522 lung
SK-OV-3 ovarian = tested on: SK-OV-3 ovarian
MALME-3M melanoma = tested on: MALME-3M melanoma
ACHN renal = tested on: ACHN renal
XF 498 CNS = tested on: XF 498 CNS
SW-620 colon = tested on: SW-620 colon
HOP-18 NSCLC = tested on: HOP-18 NSCLC
CCRF-CEM leukemia = tested on: CCRF-CEM leukemia
K-562 leukemia = tested on: K-562 leukemia
OVCAR-5 ovarian = tested on: OVCAR-5 ovarian
OVCAR-8 ovarian = tested on: OVCAR-8 ovarian
UACC-257 melanoma = tested on: UACC-257 melanoma
SNB-19 CNS = tested on: SNB-19 CNS
BT-549 breast = tested on: BT-549 breast
LXFL 529 NSCLC = tested on: LXFL 529 NSCLC

O=C(CC1(O)C(=O)Nc2c(Cl)cc(Cl)cc21)c1ccc(Br)cc1Br (centres undefined)
TGI (RXF-631 renal): 9.25 µM
TGI (SNB-75 CNS): 36.6 µM
TGI (SK-MEL-28 melanoma): 27.7 µM
TGI (PC-3 prostate): 31.4 µM
TGI (UACC-62 melanoma): 25.6 µM
TGI (NCI-H226 lung): 34.8 µM
TGI (SF-268 CNS): 24 µM
TGI (RXF 393 renal): 26.2 µM
TGI (OVCAR-3 ovarian): 43.8 µM
TGI (MCF7 breast): 29.6 µM
TGI (SK-MEL-2 melanoma): 28.9 µM
TGI (SF-539 CNS): 36.5 µM
TGI (SR leukemia): > 22 µM
TGI (IGROV1 ovarian): 34.7 µM
TGI (A549 NSCLC): 57.4 µM
TGI (MDA-MB-435): 25.5 µM
TGI (DMS 273 small cell lung): 22.9 µM
TGI (COLO 205 colon): 16.9 µM
TGI (SK-MEL-5 melanoma): 14.6 µM
TGI (SNB-78 CNS): > 74.9 µM
TGI (HOP-92 NSCLC): 9.75 µM
TGI (786-0 renal): 25.5 µM
TGI (HT29 colon): 40.9 µM
TGI (DU-145 prostate): 32.3 µM
TGI (CAKI-1 renal): 16.2 µM
TGI (MDA-N): 21.8 µM
TGI (HS 578T breast): 26.5 µM
TGI (TK-10 renal): 32 µM
TGI (HL-60(TB) leukemia): 18.1 µM
TGI (KM12 colon): 27.9 µM
TGI (M14 melanoma): 18.5 µM
TGI (MDA-MB-231 breast): 41.3 µM
TGI (EKVX NSCLC): 34.6 µM
TGI (HCC-2998 colon): 30.6 µM
TGI (SF-295 CNS): 34.9 µM
TGI (MOLT-4 leukemia): 17.3 µM
TGI (DLD-1 colon): 24.1 µM
TGI (RPMI-8226 leukemia): 21.6 µM
TGI (LOX IMVI melanoma): 15 µM
TGI (HOP-62 NSCLC): 36.5 µM
TGI (HCT-116 colon): 15.2 µM
TGI (HCT-15 colon): 22.2 µM
TGI (A498 renal): 40 µM
TGI (M19-MEL melanoma): 25.1 µM
TGI (SN12C renal): 28.5 µM
TGI (UO-31 renal): 29.5 µM
TGI (OVCAR-4 ovarian): 29.5 µM
TGI (KM20L2 colon): 33.9 µM
TGI (U251 CNS): 28.5 µM
TGI (NCI-H23 lung): 21.2 µM
TGI (NCI-H460 lung): 28.9 µM
TGI (DMS 114 small cell lung): 20.3 µM
TGI (NCI-H522 lung): 8.05 µM
TGI (SK-OV-3 ovarian): 44.2 µM
TGI (MALME-3M melanoma): 23.7 µM
TGI (ACHN renal): 27.1 µM
TGI (XF 498 CNS): 23.8 µM
TGI (SW-620 colon): 10.7 µM
TGI (HOP-18 NSCLC): 27.9 µM
TGI (CCRF-CEM leukemia): 3.21 µM
TGI (K-562 leukemia): 9 µM
TGI (OVCAR-5 ovarian): 31.9 µM
TGI (OVCAR-8 ovarian): 17.6 µM
TGI (UACC-257 melanoma): 22.9 µM
TGI (SNB-19 CNS): 41 µM
TGI (BT-549 breast): 22.3 µM

CN(C)CC[N+]1=Nc2cccc3cccc(c23)N1
TGI (RXF-631 renal): > 100 µM
TGI (SNB-75 CNS): > 100 µM
TGI (SK-MEL-28 melanoma): > 100 µM
TGI (UACC-62 melanoma): > 100 µM
TGI (NCI-H226 lung): > 100 µM
TGI (SF-268 CNS): > 100 µM
TGI (OVCAR-3 ovarian): > 100 µM
TGI (SK-MEL-2 melanoma): > 100 µM
TGI (SF-539 CNS): > 100 µM
TGI (SR leukemia): 40.9 µM
TGI (IGROV1 ovarian): > 100 µM
TGI (A549 NSCLC): > 100 µM
TGI (DMS 273 small cell lung): 35.6 µM
TGI (COLO 205 colon): > 71.2 µM
TGI (SK-MEL-5 melanoma): > 100 µM
TGI (SNB-78 CNS): > 100 µM
TGI (LXFL 529 NSCLC): > 100 µM
TGI (HOP-92 NSCLC): > 100 µM
TGI (786-0 renal): > 100 µM
TGI (HT29 colon): > 100 µM
TGI (CAKI-1 renal): > 100 µM
TGI (TK-10 renal): > 100 µM
TGI (HL-60(TB) leukemia): > 60.1 µM
TGI (KM12 colon): > 100 µM
TGI (M14 melanoma): > 100 µM
TGI (EKVX NSCLC): > 100 µM
TGI (HCC-2998 colon): > 100 µM
TGI (SF-295 CNS): > 100 µM
TGI (MOLT-4 leukemia): > 73.2 µM
TGI (DLD-1 colon): > 59.8 µM
TGI (RPMI-8226 leukemia): > 66.8 µM
TGI (LOX IMVI melanoma): > 63.7 µM
TGI (HOP-62 NSCLC): > 100 µM
TGI (HCT-116 colon): > 72.7 µM
TGI (HCT-15 colon): > 100 µM
TGI (A498 renal): > 100 µM
TGI (M19-MEL melanoma): > 100 µM
TGI (SN12C renal): > 100 µM
TGI (UO-31 renal): > 60.9 µM
TGI (OVCAR-4 ovarian): > 100 µM
TGI (KM20L2 colon): > 100 µM
TGI (U251 CNS): > 100 µM
TGI (NCI-H23 lung): > 100 µM
TGI (NCI-H460 lung): > 64.8 µM
TGI (DMS 114 small cell lung): > 100 µM
TGI (NCI-H522 lung): > 95.7 µM
TGI (SK-OV-3 ovarian): > 100 µM
TGI (MALME-3M melanoma): > 100 µM
TGI (ACHN renal): > 100 µM
TGI (XF 498 CNS): > 100 µM
TGI (SW-620 colon): > 58 µM
TGI (HOP-18 NSCLC): > 100 µM
TGI (CCRF-CEM leukemia): > 67.3 µM
TGI (K-562 leukemia): > 63.4 µM
TGI (OVCAR-5 ovarian): > 100 µM
TGI (OVCAR-8 ovarian): > 100 µM
TGI (UACC-257 melanoma): > 100 µM
TGI (SNB-19 CNS): > 100 µM
